Experimental data published in BindingDB's records for patent US8962648 (Oncotherapy Science, 2015).
Several values for one entry are separate records, joined by “and”; a condition that tells them apart may be missing. Equal values may be shown once.

target: T1, Lymphokine-activated killer T-cell-originated protein kinase (Homo sapiens, UniProt Q96KB5); experiment: Kinase Assay; settings: pH 7.4; 25 °C
T1 sequence (Q96KB5 whole entry): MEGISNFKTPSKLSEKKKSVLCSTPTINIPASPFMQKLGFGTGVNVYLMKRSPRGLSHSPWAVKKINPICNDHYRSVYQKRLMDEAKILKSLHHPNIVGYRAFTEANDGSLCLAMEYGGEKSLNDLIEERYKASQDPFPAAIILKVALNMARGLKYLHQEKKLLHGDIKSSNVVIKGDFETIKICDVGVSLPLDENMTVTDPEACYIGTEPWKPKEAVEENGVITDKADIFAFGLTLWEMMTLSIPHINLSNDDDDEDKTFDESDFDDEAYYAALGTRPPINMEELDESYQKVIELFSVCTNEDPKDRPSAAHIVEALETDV
Protocol: PBK activity was determined in the presence or absence of compounds using fluorescein isothiocyanate-labeled (FITC-labeled) histone H3 peptide as a substrate. […] The serially diluted compounds, 0.8 ng/micro-L PBK (Carna Biosciences) and 100 nM FITC-labeled histone H3 peptide were reacted in a reaction buffer (20 mM HEPES, 0.01% Tween-20, 0.3 mM MgCl2, 2 mM dithiothreitol, 50 micro-M ATP, pH 7.4) at room temperature for 1 hour. The reaction was stopped by the addition of three fold assay volume of progressive binding solution. Following 0.5 hour incubation at room temperature.

Point of comparison: `CC(N)c1ccc(-c2c(O)ccc3[nH]c(=O)c4sccc4c23)cc1` (stereo not given) [US8962648, 195], IC50 0.73 nM. Against it:
- N[C@H]1CCN(c2ccc3[nH]c(=O)c4sc(-c5ccc(O)cc5)cc4c3c2)C1 [US8962648, 51] — 110-fold higher, 78 nM
- O=c1[nH]c2ccc(O)c(-c3ccc4cn[nH]c4c3)c2c2ccsc12 [US8962648, 61] — 4.8-fold higher, 3.5 nM
- NS(=O)(=O)c1ccc(-c2c(O)ccc3[nH]c(=O)c4sccc4c23)cc1 [US8962648, 65] — 2.5-fold higher, 1.8 nM
- CS(=O)(=O)Nc1ccc(-c2c(O)ccc3[nH]c(=O)c4sccc4c23)cc1 [US8962648, 77] — 3.6-fold higher, 2.6 nM
- N#CCc1ccc(-c2c(O)ccc3[nH]c(=O)c4sccc4c23)cc1 [US8962648, 81] — 16-fold higher, 12 nM
- O=c1[nH]c2ccc(O)c(C3=CCNCC3)c2c2ccsc12 [US8962648, 84] — within 1.5-fold, 0.78 nM
- CN(C)CCc1ccc(-c2c(O)ccc3[nH]c(=O)c4sccc4c23)cc1 [US8962648, 93] — 7.4-fold higher, 5.4 nM
- Cc1cc2c(s1)c(=O)[nH]c1ccc(O)c(-c3ccc(CN)cc3)c12 [US8962648, 95] — 6-fold higher, 4.4 nM
- CS(=O)(=O)N1CCN(c2ccc(-c3c(O)ccc4[nH]c(=O)c5sccc5c34)cc2)CC1 [US8962648, 112] — 16-fold higher, 12 nM
- COc1ccc2[nH]c(=O)c3sccc3c2c1-c1ccc(CN2CCC(CNC(=O)OC(C)(C)C)CC2)cc1 [US8962648, 139] — 13-fold higher, 9.4 nM
- CCN(CC)CCNCCCOc1ccc(-c2c(OC)ccc3[nH]c(=O)c4sccc4c23)cc1 [US8962648, 145] — 64-fold higher, 47 nM
- COc1ccc2[nH]c(=O)c3sccc3c2c1/C=C/CN1CCC(N)CC1 [US8962648, 152] — 42-fold higher, 31 nM
- COc1ccc2[nH]c(=O)c3sccc3c2c1-c1ccc(CN(C)C)cc1 [US8962648, 164] — 15-fold higher, 11 nM
- CN(C)Cc1ccc(-c2c(O)ccc3[nH]c(=O)c4sccc4c23)cc1 [US8962648, 165] — 9.5-fold higher, 6.9 nM
- COc1ccc2[nH]c(=O)c3sccc3c2c1-c1ccc(CCN)cc1 [US8962648, 169] — 30-fold higher, 22 nM
- CCN(CC)Cc1ccc(-c2c(O)ccc3[nH]c(=O)c4sccc4c23)cc1 [US8962648, 184] — 11-fold higher, 7.7 nM
- CNCc1ccc(-c2c(O)ccc3[nH]c(=O)c4sccc4c23)cc1 [US8962648, 187] — within 1.5-fold, 0.9 nM
- CNCc1ccc(-c2c(OC)ccc3[nH]c(=O)c4sccc4c23)cc1 [US8962648, 188] — 11-fold higher, 7.8 nM
- CC(c1ccc(-c2c(O)ccc3[nH]c(=O)c4sccc4c23)cc1)N1CCCC1 (stereo not given) [US8962648, 194] — 3.8-fold higher, 2.8 nM
- CCN(CC)C(C)c1ccc(-c2c(O)ccc3[nH]c(=O)c4sccc4c23)cc1 (stereo not given) [US8962648, 196] — 6.2-fold higher, 4.5 nM
- O=c1[nH]c2ccc(O)c(-c3ccc(S(=O)(=O)NCCBr)cc3)c2c2ccsc12 [US8962648, 210] — 15-fold higher, 11.3 nM
- CS(=O)(=O)NCc1ccc(-c2c(O)ccc3[nH]c(=O)c4sccc4c23)cc1 [US8962648, 212] — 7.5-fold higher, 5.5 nM
- COc1ccc2[nH]c(=O)c3sccc3c2c1-c1ccc(C(C)N2CCCC2)cc1 (stereo not given) [US8962648, 216] — 29-fold higher, 21 nM
- Nc1ccc(-c2c(O)ccc3[nH]c(=O)c4sccc4c23)cc1O [US8962648, 217] — 3.2-fold higher, 2.3 nM
- CC(C)NCc1ccc(-c2c(O)ccc3[nH]c(=O)c4sccc4c23)cc1 [US8962648, 229] — 5.8-fold higher, 4.2 nM
- COc1ccc2[nH]c(=O)c3sccc3c2c1-c1ccc([C@H](C)N)cc1 [US8962648, 232] — 10-fold higher, 7.4 nM
- C[C@H](N)c1ccc(-c2c(O)ccc3[nH]c(=O)c4sccc4c23)cc1 [US8962648, 233] — within 1.5-fold, 0.81 nM
- NCC1CCN(Cc2ccc(-c3c(O)ccc4[nH]c(=O)c5sccc5c34)cc2F)CC1 [US8962648, 235] — within 1.5-fold, 0.57 nM
- Cc1cc(-c2c(O)ccc3[nH]c(=O)c4sccc4c23)ccc1NS(C)(=O)=O [US8962648, 254] — 4.1-fold higher, 3 nM
- NCc1ccc(-c2c(O)cc(F)c3[nH]c(=O)c4sccc4c23)cc1 [US8962648, 256] — 3.4-fold higher, 2.5 nM
- COc1cc(F)c2[nH]c(=O)c3sccc3c2c1-c1ccc(CN)cc1 [US8962648, 257] — 36-fold higher, 26 nM
- N#CCc1ccc(-c2c(O)ccc3[nH]c(=O)c4sccc4c23)cc1F [US8962648, 261] — 21-fold higher, 15 nM
- CC(c1ccc(-c2c(O)ccc3[nH]c(=O)c4sccc4c23)cc1)N1CCCCC1 (stereo not given) [US8962648, 262] — 5.9-fold higher, 4.3 nM
- COc1ccc2[nH]c(=O)c3sccc3c2c1-c1ccc(CCN)c(F)c1 [US8962648, 265] — 5.2-fold higher, 3.8 nM
- NCc1ccc(-c2c(O)ccc3[nH]c(=O)c4sccc4c23)s1 [US8962648, 266] — within 1.5-fold, 0.78 nM
- CCNCc1ccc(-c2c(O)ccc3[nH]c(=O)c4sccc4c23)cc1 [US8962648, 267] — 2.7-fold higher, 2 nM
- CCNCc1ccc(-c2c(OC)ccc3[nH]c(=O)c4sccc4c23)cc1 [US8962648, 269] — 8.2-fold higher, 6 nM
- NCc1ccc(-c2c(O)cc(Br)c3[nH]c(=O)c4sccc4c23)cc1 [US8962648, 270] — 42-fold higher, 31 nM
- C[C@H](c1ccc(-c2c(O)ccc3[nH]c(=O)c4sccc4c23)cc1)N(C)C [US8962648, 272] — within 1.5-fold, 0.88 nM
- NCCCc1ccc(-c2c(O)ccc3[nH]c(=O)c4sccc4c23)cc1 [US8962648, 273] — within 1.5-fold, 0.74 nM
- COc1ccc2[nH]c(=O)c3sccc3c2c1-c1ccc([C@@H](C)N)cc1 [US8962648, 274] — 5.2-fold higher, 3.8 nM
- C[C@@H](N)c1ccc(-c2c(O)ccc3[nH]c(=O)c4sccc4c23)cc1 [US8962648, 275] — within 1.5-fold, 0.54 nM
- NCCc1ccc(-c2c(O)ccc3[nH]c(=O)c4sccc4c23)cc1F [US8962648, 276] — within 1.5-fold, 0.5 nM
- CC(C)(CN)c1ccc(-c2c(O)ccc3[nH]c(=O)c4sccc4c23)cc1 [US8962648, 277] — within 1.5-fold, 0.67 nM
- O=c1[nH]c2ccc(O)c(-c3ccc(CN4CCC(O)C4)c(F)c3)c2c2ccsc12 (stereo not given) [US8962648, 278] — within 1.5-fold, 0.97 nM
- N#CCCc1ccc(-c2c(O)ccc3[nH]c(=O)c4sccc4c23)cc1 [US8962648, 290] — 4.4-fold higher, 3.2 nM
- CC(=O)c1ccc(-c2c(O)ccc3[nH]c(=O)c4sccc4c23)cc1 [US8962648, 296] — 32-fold higher, 23 nM
- O=c1[nH]c2ccc(O)c(-c3ccc(S(=O)(=O)NCCBr)c(F)c3)c2c2ccsc12 [US8962648, 297] — 18-fold higher, 13 nM
- CN(C)C1CCCN(CCCc2c(O)ccc3[nH]c(=O)c4sccc4c23)C1 (stereo not given) [US8962648, 298] — 110-fold higher, 83 nM
- C[C@@H](NS(C)(=O)=O)c1ccc(-c2c(O)ccc3[nH]c(=O)c4sccc4c23)cc1 [US8962648, 301] — 4.4-fold higher, 3.2 nM
- CN(C)S(=O)(=O)c1ccc(-c2c(O)ccc3[nH]c(=O)c4sccc4c23)cc1 [US8962648, 304] — 62-fold higher, 45 nM
- CN(C)CC(C)(C)c1ccc(-c2c(O)ccc3[nH]c(=O)c4sccc4c23)cc1 [US8962648, 308] — 3.8-fold higher, 2.8 nM
- CC(O)c1ccc(-c2c(O)ccc3[nH]c(=O)c4sccc4c23)cc1 (stereo not given) [US8962648, 313] — 2.7-fold higher, 2 nM
- CC(NC1CCCC1)c1ccc(-c2c(O)ccc3[nH]c(=O)c4sccc4c23)cc1 (stereo not given) [US8962648, 314] — 3.8-fold higher, 2.8 nM
- CC(C)(N)c1ccc(-c2c(O)ccc3[nH]c(=O)c4sccc4c23)cc1 [US8962648, 319] — 1.7-fold lower, 0.43 nM
- N#Cc1ccc2[nH]c(=O)c3sccc3c2c1-c1ccc(CN)cc1 [US8962648, 326] — 18-fold higher, 13 nM

For `NCc1ccc(-c2c(O)ccc3[nH]c(=O)c4sccc4c23)cc1` [US8962648, 73], the IC50 was 0.63 nM and 0.38 nM.
`NCCc1ccc(-c2c(O)ccc3[nH]c(=O)c4sccc4c23)cc1` [US8962648, 176] was tested, and the IC50 was 1.2 nM and 1.1 nM.
In the case of `CC(c1ccc(-c2c(O)ccc3[nH]c(=O)c4sccc4c23)cc1)N(C)C` (stereo not given) [US8962648, 192], the IC50 is reported as 1.6 nM and 1.9 nM.
